Earlier results, collected in patent publication US20090054331A1, “HIGH TEMPERATURE STABLE PEPTIDE FORMULATION” (priority 2007, published 2009).

Tests used:
[1] = in vivo
human dental pulp cells = details: in vitro
human dental defects = details: clinical trial

TDLQERGDNDISPFSGDGQPFKD [AC-100]
effect on proliferation, differentiation and mineralization of human osteoblasts (human osteoblasts): stimulate proliferation, differentiation, and mineralization
bone formation activities [1]: has shown bone formation activities in vivo
proliferation of human dental pulp cells (human dental pulp cells): stimulation of the proliferation
formation of new dentin (human dental defects): formation of new dentin
